These are literature values, as cited in patent US11039992B2, “Stable redox compositions and methods of use” (Reoxcyn, LLC, priority 2017, dated 2021).

For the data set the following is noted: pH-neutral aqueous solution (pH around 7.0) at room temperature.

Regarding `O=[O+][O-]` [ozone], the half-life result was “about 20 minutes”.
